# In PubChem BioAssay AID1963867 (Molecular Pharmacology Branch, DTP, NCI, 2024):
# Tested on: KRAS-mutant PDC tumor spheroid with HUVEC/MSC, viability
# Assay: Anticancer human tumor 327498-153-R-J2-PDC patient-derived uterine carcinosarcoma cell line growth inhibition [KRAS2]
# Conditions: for IC50: curve of first compound; for viability, T/C: stronger effect = lower value
# Summary of the method: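 KRAS-mutant tumor cells were grown as spheroids with HUVEC endothelial cells and human MSCs as stroma. Targeted agents were tested alone and with KRAS pathway inhibitors. Doses started at or near clinical Cmax, or 10 microM, descending half-log.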
# [1] = second compound 0.1 µM, first compound 0.01 µM
# [2] = second compound 0.1 µM, first compound 0.0316 µM
# [3] = second compound 0.1 µM, first compound 0.1 µM
# [4] = second compound 0.316 µM, first compound 0.01 µM
# [5] = second compound 0.316 µM, first compound 0.0316 µM
# [6] = second compound 0.316 µM, first compound 0.1 µM
# [7] = second compound 1 µM, first compound 0.01 µM
# [8] = second compound 1 µM, first compound 0.0316 µM
# [9] = second compound 1 µM, first compound 0.1 µM
# [10] = second compound 3.16 µM, first compound 0.01 µM
# [11] = second compound 3.16 µM, first compound 0.0316 µM
# [12] = second compound 3.16 µM, first compound 0.1 µM
# [13] = second compound 10 µM, first compound 0.01 µM
# [14] = second compound 10 µM, first compound 0.0316 µM
# [15] = second compound 10 µM, first compound 0.1 µM
# 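Note: spheroids exposed to agents for seven days before reading.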
# 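Throughout, for viability, T/C: 100% = DMSO vehicle wells so lower means fewer viable cells.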
SMILES,IC50 (second compound 0.1 µM) [nM],IC50 (second compound 0.316 µM) [nM],IC50 (second compound 1 µM) [nM],IC50 (second compound 3.16 µM) [nM],IC50 (second compound 10 µM) [nM],"viability, T/C [1] [%]","viability, T/C [2] [%]","viability, T/C [3] [%]","viability, T/C [4] [%]","viability, T/C [5] [%]","viability, T/C [6] [%]","viability, T/C [7] [%]","viability, T/C [8] [%]","viability, T/C [9] [%]","viability, T/C [10] [%]","viability, T/C [11] [%]","viability, T/C [12] [%]","viability, T/C [13] [%]","viability, T/C [14] [%]","viability, T/C [15] [%]",further results
CC1COCCN1c1cc(-c2ccnn2C)c2ccnc(-c3ccn[nH]3)c2n1 (stereo not given) + CNCc1ccccc1-c1csc(C(C)Nc2nc(C)nc3cc(OC)c(OC)cc23)c1,23.5,17.9,15,< 10,< 10,80,39.5,9.19,66.6,33.8,11.5,62.9,26.7,9.86,0.09,0.07,0.05,0.13,0.13,0.13,"viability, T/C (second compound 0.1 µM, first compound 0.316 µM): 5.57%; viability, T/C (second compound 0.1 µM, first compound 1 µM): 5.53%; viability, T/C (second compound 0.1 µM, first compound 3.16 µM): 5.04%; viability, T/C (second compound 0.316 µM, first compound 0.316 µM): 5.05%; viability, T/C (second compound 0.316 µM, first compound 1 µM): 5.87%; viability, T/C (second compound 0.316 µM, first compound 3.16 µM): 5.3%; viability, T/C (second compound 1 µM, first compound 0.316 µM): 4.09%; viability, T/C (second compound 1 µM, first compound 1 µM): 3.98%; viability, T/C (second compound 1 µM, first compound 3.16 µM): 1.03%; viability, T/C (second compound 3.16 µM, first compound 0.316 µM): 0.71%; viability, T/C (second compound 3.16 µM, first compound 1 µM): 0.03%; viability, T/C (second compound 3.16 µM, first compound 3.16 µM): 0.13%; viability, T/C (second compound 10 µM, first compound 0.316 µM): 0.12%; viability, T/C (second compound 10 µM, first compound 1 µM): 0.12%; viability, T/C (second compound 10 µM, first compound 3.16 µM): 0.21%"
Cn1ncnc1[C@H]1c2n[nH]c(=O)c3cc(F)cc(c23)N[C@@H]1c1ccc(F)cc1 + CC1OCC2(CCN(c3cnc(Sc4ccnc(N)c4Cl)c(N)n3)CC2)C1N,10.9,1.14,< 0.316,< 0.316,< 0.316,55.2,31.4,18,38.2,23.3,15.6,21.4,15.6,13.2,19.2,11.2,9.64,15.5,12.4,8.58,"viability, T/C (second compound 0.1 µM, first compound 0.000316 µM): 71.8%; viability, T/C (second compound 0.1 µM, first compound 0.001 µM): 68.1%; viability, T/C (second compound 0.1 µM, first compound 0.00316 µM): 59.4%; viability, T/C (second compound 0.316 µM, first compound 0.000316 µM): 58%; viability, T/C (second compound 0.316 µM, first compound 0.001 µM): 51.1%; viability, T/C (second compound 0.316 µM, first compound 0.00316 µM): 40.7%; viability, T/C (second compound 1 µM, first compound 0.000316 µM): 45.5%; viability, T/C (second compound 1 µM, first compound 0.001 µM): 37.2%; viability, T/C (second compound 1 µM, first compound 0.00316 µM): 26.6%; viability, T/C (second compound 3.16 µM, first compound 0.000316 µM): 30%; viability, T/C (second compound 3.16 µM, first compound 0.001 µM): 32.2%; viability, T/C (second compound 3.16 µM, first compound 0.00316 µM): 25%; viability, T/C (second compound 10 µM, first compound 0.000316 µM): 29.5%; viability, T/C (second compound 10 µM, first compound 0.001 µM): 27.1%; viability, T/C (second compound 10 µM, first compound 0.00316 µM): 21.9%"
